Measured values published in patent publication US20210227854A1, “USE OF D-RIBOSE TO ENHANCE ADAPTATION TO PHYSICAL STRESS” (Bioenergy Life Science, Inc., priority 2014, published 2021).

Experiments:
Assay type in all cases: in vivo, human
[1] = Serum creatine kinase (CK) around three days of high-intensity exercise; conditions: for CK (u): Day 1 to Day 3, 10 g/day, mean ± SD; for Creatine kinase levels, average increase: text b38, p=0.03
Experimental: A high-intensity exercise protocol was designed as a double-blind, crossover study to assess the influence of D-Ribose adaptation to physical stress. Specifically, D-Ribose and a control (Dextrose) were administered on separate subjects at a dosage of ten grams per day (10 g/day). A variety of physiological parameters were measured in the subjects administered D-Ribose (DR) supplementation (i.e., the DR subjects) versus the subjects administered Dextrose (DEX) supplementation (i.e., the DEX subjects). To test D-ribose for adaptation, the twenty-six (26) adult subjects were further divided into two subgroups based on their fitness level (i.e., peak oxygen uptake (VO2 max) results. The first subgroup comprised subjects with higher VO2 max results (i.e., the “Fit Subgroup”) and the second subgroup comprised subjects with lower VO2 max results (i.e., the “Unfit Subgroup”). The Unfit Subgroup consisted of six (6) females and seven (7) males. The average age of the Unfit Subgroup was 27.7±3.4 years and the average peak VO2 of the Unfit Subgroup was 39.9±4.1 mL/kg/min. The Fit Subgroup consisted of four (4) females and nine (9) males. The average age of the Fit Subgroup was 27.6±3.5 year and the average peak VO2 of the Fit Subgroup was 52.2±4.3 mL/kg/min. The protocol of the double-blind crossover study involved an initial baseline assessment, followed by two separate day assessments after consuming either a DR or DEX supplement. Each exercise session entailed measurements of creatine kinase (CK), blood urea nitrogen (BUN), glucose, heart rate (HR), rate of perceived exertion (RPE), and power output (PO) measurements. Physiologic parameters were measured and hydration was provided to the subjects during the exercise session. The same protocol for testing and hydration protocol was followed for both DR subjects and DEX subjects. Blood samples were drawn from each subject via a venipuncture technique at the following time periods: • Ten (10) minutes before commencement of exercise; • Twenty (20) minutes after the commencement of and during exercise; • Forty (40) minutes after the commencement of and during exercise; • Sixty (60) minutes after the commencement of and during exercise; and • Twenty-four (24) hours after the conclusion of exercise (twenty-five (25) hours after the commencement of exercise). Blood glucose was measured at all of the above time points except at twenty-four (24) hours post-exercise. Creatine kinase and BUN levels were measured at the pre-exercise (−10 min.) point during the three (3) days of exercise and twenty-four (24) hours post-exercise following the third (last) exercise session. Heart rate was recorded using a Polar HR monitor. Blood glucose levels were measured using a Bayer glucose monitor. Blood lactate levels were measured by an AccuSport Lactate Analyzer. Creatine kinase and BUN were measured utilizing an Abaxis Piccolo analyzer. Power data from the time trial performance test was assessed with the Sports Medicine Industries (SMI) software package.

[2] = Blood urea nitrogen (BUN) around three days of high-intensity exercise; conditions: for Change in BUN levels: Unfit Subgroup, p=0.88
Experimental: A high-intensity exercise protocol was designed as a double-blind, crossover study to assess the influence of D-Ribose adaptation to physical stress. Specifically, D-Ribose and a control (Dextrose) were administered on separate subjects at a dosage of ten grams per day (10 g/day). A variety of physiological parameters were measured in the subjects administered D-Ribose (DR) supplementation (i.e., the DR subjects) versus the subjects administered Dextrose (DEX) supplementation (i.e., the DEX subjects). To test D-ribose for adaptation, the twenty-six (26) adult subjects were further divided into two subgroups based on their fitness level (i.e., peak oxygen uptake (VO2 max) results. The first subgroup comprised subjects with higher VO2 max results (i.e., the “Fit Subgroup”) and the second subgroup comprised subjects with lower VO2 max results (i.e., the “Unfit Subgroup”). The Unfit Subgroup consisted of six (6) females and seven (7) males. The average age of the Unfit Subgroup was 27.7±3.4 years and the average peak VO2 of the Unfit Subgroup was 39.9±4.1 mL/kg/min. The Fit Subgroup consisted of four (4) females and nine (9) males. The average age of the Fit Subgroup was 27.6±3.5 year and the average peak VO2 of the Fit Subgroup was 52.2±4.3 mL/kg/min. […] Physiologic parameters were measured and hydration was provided to the subjects during the exercise session. […] Blood glucose was measured at all of the above time points except at twenty-four (24) hours post-exercise. Creatine kinase and BUN levels were measured at the pre-exercise (−10 min.) point during the three (3) days of exercise and twenty-four (24) hours post-exercise following the third (last) exercise session. Heart rate was recorded using a Polar HR monitor. Blood glucose levels were measured using a Bayer glucose monitor. Blood lactate levels were measured by an AccuSport Lactate Analyzer. Creatine kinase and BUN were measured utilizing an Abaxis Piccolo analyzer. Power data from the time trial performance test was assessed with the Sports Medicine Industries (SMI) software package.

[3] = Two-minute power test (time trial) on cycle ergometer after sixty-minute high-intensity exercise session, double-blind crossover study; conditions: for Absolute mean power output change / Relative mean power output change: Table 4, mean (±SD); for Mean Power (W/kg BW): difference between day 1 and day 3, 10 g/day, mean ± SD
Experimental: (§1) A high-intensity exercise protocol was designed as a double-blind, crossover study to assess the influence of D-Ribose adaptation to physical stress. Specifically, D-Ribose and a control (Dextrose) were administered on separate subjects at a dosage of ten grams per day (10 g/day). A variety of physiological parameters were measured in the subjects administered D-Ribose (DR) supplementation (i.e., the DR subjects) versus the subjects administered Dextrose (DEX) supplementation (i.e., the DEX subjects).
(§2) The subjects consisted of twenty-six (26) healthy individual (10 females, 16 males). Each subject was randomly categorized as a DR subject or a DEX subject for the administration of supplementation. Furthermore, each subject was required to maintain his or her normal diet during the study, as well as performing his or her normal daily activities without performing any additional separate exercise sessions not part of the study protocol.
To test D-ribose for adaptation, the twenty-six (26) adult subjects were further divided into two subgroups based on their fitness level (i.e., peak oxygen uptake (VO2 max) results. The first subgroup comprised subjects with higher VO2 max results (i.e., the “Fit Subgroup”) and the second subgroup comprised subjects with lower VO2 max results (i.e., the “Unfit Subgroup”). The Unfit Subgroup consisted of six (6) females and seven (7) males. The average age of the Unfit Subgroup was 27.7±3.4 years and the average peak VO2 of the Unfit Subgroup was 39.9±4.1 mL/kg/min. The Fit Subgroup consisted of four (4) females and nine (9) males. The average age of the Fit Subgroup was 27.6±3.5 year and the average peak VO2 of the Fit Subgroup was 52.2±4.3 mL/kg/min.
On the load days (i.e., the two (2) days prior to the exercise sessions), DR subjects consumed five grams (5 g) of DR mixed with either their food or in a self-selected beverage with lunch and an additional five grams (5 g) with dinner (i.e., between three to eight hours apart), while DEX subjects consumed five grams (5 g) of DEX mixed with either their food or in a self-selected beverage with lunch and an additional five grams (5 g) with dinner (i.e., between three to eight hours apart).
On the exercise session days (i.e., three (3) days following the load days), DR subjects ingested a standardized pre-exercise snack containing five grams (5 g) of DR at two (2) hours before the exercise session and five grams (5 g) of DR following the exercise session but before leaving the laboratory (i.e., within one hour following the exercise session), while DEX subjects ingested a standardized pre-exercise snack containing five grams (5 g) of DEX at two (2) hours before the exercise session and five grams (5 g) of DEX following the exercise session but before leaving the laboratory (i.e., within one hour following the exercise session). For both DR subjects and DEX subjects, the standardized snacks were self-selected but were based on the subjects' normal dietary habits. The snacks were consistent from day to day and consisted of one hundred seventy grams (170 g) of yogurt and two granola bars, along with the designated supplement. Subjects were asked to record their diets so that there would be consistency throughout the testing period. Following an exercise session, each subject ingested the final daily dose of five grams (5 g) before leaving the laboratory. Subjects also ingested two hundred milliliters (200 ml) of water at twenty (20) and forty (40) minutes of exercise to minimize the effects of dehydration, which can occur during periods of high-intensity exercise.
Each subject was randomly assigned to be a DR subject (for administration of DR supplementation) or a DEX subject (for administration of DEX supplementation). Apart from the supplementation provided to and consumed by the subject, the treatment protocols were identical. The specific treatment protocol (i.e., administration of supplementation and exercise sessions) is detailed in Table 1 below: […]

[4] = Tolerability of supplementation in the exercise study; conditions: 10 g/day; 26 subjects
Experimental: as §1
as §2, with “protocol. […]” for “protocol.”

Row | Compound | Change in CK levels, DR versus DEX ([1]; Fit Subgroup) | CK (u) ([1]; Fit Subgroup) | CK (u) ([1]; Unfit Subgroup) | Creatine kinase levels, average increase ([1]; Unfit Subgroup) | Change in BUN levels, DR versus DEX ([2]; Fit Subgroup) | Change in BUN levels [2] | Average change in absolute peak power from Day 1 to Day 3 ([3]; Fit Subgroup) | Average change in relative peak power from Day 1 to Day 3 ([3]; Fit Subgroup) | Relative and absolute mean power outputs, DR versus DEX treatments ([3]; Fit Subgroup) | Absolute mean power output change ([3]; Fit Subgroup) | Relative mean power output change ([3]; Fit Subgroup) | Mean Power (W/kg BW) ([3]; Fit Subgroup) | Average change in absolute peak power from Day 1 to Day 3 ([3]; Unfit Subgroup) | Average change in relative peak power from Day 1 to Day 3 ([3]; Unfit Subgroup) | Absolute mean power output change ([3]; Unfit Subgroup) | Relative mean power output change ([3]; Unfit Subgroup) | Mean Power (W/kg BW) ([3]; Unfit Subgroup) | Difference between DR and DEX in the change of absolute mean power ([3]; Unfit Subgroup, p=0.01) | Improvement in relative mean power over DEX ([3]; Unfit Subgroup, p=0.04) | Tolerability of supplement [4]
1 | O=C[C@H](O)[C@H](O)[C@H](O)CO [DR, D-Ribose] | No differences | 40.0 ± 348.1 u | 10.3 ± 79.3 u | 37.1±85.2 U | No differences | 0.93±2.66 | 6.2±28.6 W | 0.15±0.41 W/kg BW | not different | 2.3 (17.1) W | 0.08 (0.39) W/kg BW | 0.08 ± 0.31 W/kg BW | 26.8±40.8 W | 0.33+0.52 W/kg BW | 13.2 (24.2) W | 0.17 (0.32) W/kg BW | 0.20 ± 0.32 W/kg BW | 245% | 288% | without any subjective complaints or issues
2 | O=C[C@H](O)[C@@H](O)[C@H](O)[C@H](O)CO [DEX, Dextrose, reference compound] | – | 12.1 ± 270 u | 124.5 ± 126.5 u | 121.4±110.2 U | – | 1.08±2.56 | 3.31±25.8 W | −0.02+0.37 W/kg BW | – | 8.2 (27.7) W | 0.07 (0.33) W/kg BW | 0.07 ± 0.33 W/kg BW | −10.8±33.0 W | −0.09+0.51 W/kg BW | −8.9 (22.4) W | −0.09 (0.29) W/kg BW | −0.09 ± 0.31 W/kg BW | – | – | without any subjective complaints or issues
